How the values were obtained:
[1] = tested on: Sprague Dawley rats, 6-OHDA lesion; test: Striatal TH expression, semi-quantitative western analysis (study 2); assay type: in vivo, rat; settings: more severe (40%) lesion, vs vehicle
Procedure: Rats were treated with 2LS98Lac or saline (vehicle) as outlined in the Schemes in Figures 9A,B via intraperitoneal (i.p.) injection (15 mg/kg). All animals were made hemi-parkinsonian with unilateral, striatal 6-hydroxydopamine (Sigma Aldrich, St. Louis, MO) injections. After surgery, behavioral assessments were done at 2- and 4-weeks post-surgery. 24 h after the last test animals were either euthanized and whole brains were harvested for future biochemical analysis or perfused and brains collected for immunohistochemistry and stereological assessment of tyrosine hydroxylase-positive (TH+) cells remaining in the SNc. In study 1: n = 16 each group were included, and all underwent the behavioral analysis: n = 16, and for the stereology in the SNc, n = 8 each group was used. In study 2: n = 23 each group were included. […] In the 2LS98Lac group, one video at 4 weeks was lost, reducing n = 22 in this specific analysis, and for the stereology, 2 brains were damaged during processing and could not be included in the stereology of the SNc, therefore […]. For biochemical subanalyses, n = 8 each group. For the microglial morphology subanalysis n = 7 each group.
FIGURE 9 | Evaluation of neuroprotection of the PACAP glycopeptide 2LS98Lac in rat Parkinson’s disease models. (A) Scheme for study 1, using a mild PD lesion. (B) Scheme for study 2, using a moderate PD lesion. […]

[2] = tested on: C57BL/6 mice, diffuse TBI; test: Sleep-wake parameters (piezoelectric sleep cage) after TBI; assay type: in vivo, mouse; settings: 10 mg/kg i.p. 30 min prior to TBI
Procedure: 30 min prior to TBI or sham injury, mice were randomly assigned to a therapeutic group and received an intraperitoneal injection of 2LS80Mel (10 mg/kg) or sterile saline (0.25 ml). Groups were as follows: TBI-2LS80Mel n = 17; TBI-vehicle n = 17; sham n = 22 (vehicle n = 11, 2LS80Mel n = 11).
Mice (19–24 g) were subjected to midline fluid percussion injury (mFPI) consistent with methods previously described ([Lifshitz, 2009]; [Harrison et al., 2014]; [Rowe et al., 2014a]; [Rowe et al., 2014b]; [Rowe et al., 2014c]). Mice were anesthetized using 5% isoflurane in 100% oxygen for 5 min and the head of the mouse was placed in a stereotaxic frame with continuously delivered isoflurane at 2.5% via nosecone. […] The injury hub was closed using a Luer-Loc cap and mice were placed in a heated recovery cage and monitored until they were ambulatory before being returned to their respective sleep cages.
For injury induction 24 h post-surgery, mice were re-anesthetized with 5% isoflurane delivered for 3 min. […] Injured mice were monitored for presence of a forearm fencing response and righting reflex times were recorded as indicators of injury severity ([Hosseini and Lifshitz, 2009]). […] After spontaneously righting, mice were placed in a heated recovery cage and monitored until they were ambulatory (approximately 5–15 min) before being returned to their piezoelectric sleep cage (see below). […]

SMILES | Striatal TH [1] | Cumulative minutes slept in the first 6 h post-injury [2] | Sleep in the first dark period [2]
[2H]C([2H])([2H])C([2H])(C([2H])([2H])[2H])[C@]([2H])(NC(=O)[C@H](C)NC(=O)[C@H](C)NC(=O)[C@H](CC(C)C)NC(=O)[C@H](Cc1ccc(O)cc1)NC(=O)[C@H](CCCCN)NC(=O)[C@H](CCCCN)NC(=O)[C@@]([2H])(NC(=O)[C@H](C)NC(=O)[C@H](CC(C)C)NC(=O)[C@H](CCC(N)=O)NC(=O)[C@H](CCCCN)NC(=O)[C@H](CCCNC(=N)N)NC(=O)[C@H](Cc1ccc(O)cc1)NC(=O)[C@H](CCCNC(=N)N)NC(=O)[C@H](CO)NC(=O)[C@H](Cc1ccc(O)cc1)NC(=O)[C@H](CO)NC(=O)[C@H](CC(=O)O)NC(=O)[C@@H](NC(=O)[C@H](Cc1ccccc1)NC(=O)[C@@H](NC(=O)CNC(=O)[C@H](CC(=O)O)NC(=O)[C@H](CO)NC(=O)[C@@H](N)Cc1c[nH]cn1)[C@@H](C)CC)[C@@H](C)O)C([2H])(C([2H])([2H])[2H])C([2H])([2H])[2H])C(=O)N[C@@H](CC(C)C)C(=O)N[C@@H](CO[C@@H]1O[C@H](CO)[C@@H](O[C@@H]2O[C@H](CO)[C@H](O)[C@H](O)[C@H]2O)[C@H](O)[C@H]1O)C(N)=O [Compound 2LS98Lac] | no significant difference | – | –
CC[C@H](C)[C@H](NC(=O)CNC(=O)[C@H](CC(=O)O)NC(=O)[C@H](CO)NC(=O)[C@@H](N)Cc1c[nH]cn1)C(=O)N[C@@H](Cc1ccccc1)C(=O)N[C@H](C(=O)N[C@@H](CC(=O)O)C(=O)N[C@@H](CO)C(=O)N[C@@H](Cc1ccc(O)cc1)C(=O)N[C@@H](CO)C(=O)N[C@@H](CCCNC(=N)N)C(=O)N[C@@H](Cc1ccc(O)cc1)C(=O)N[C@@H](CCCNC(=N)N)C(=O)N[C@@H](CCCCN)C(=O)N[C@@H](CCC(N)=O)C(=O)N[C@@H](CC(C)C)C(=O)N[C@@H](C)C(=O)N[C@H](C(=O)N[C@@H](CCCCN)C(=O)N[C@@H](CCCCN)C(=O)N[C@@H](Cc1ccc(O)cc1)C(=O)N[C@@H](CC(C)C)C(=O)N[C@@H](C)C(=O)N[C@@H](C)C(=O)N[C@H](C(=O)N[C@@H](CC(C)C)C(=O)N[C@@H](CO[C@@H]1O[C@H](CO[C@H]2O[C@H](CO)[C@H](O)[C@H](O)[C@H]2O)[C@@H](O)[C@H](O)[C@H]1O)C(N)=O)C(C)C)C(C)C)[C@@H](C)O [Compound 2LS80Mel] | – | slept comparable minutes to uninjured sham animals | prevented this injury-induced increase in sleep

— PMC8887546, “Design and Synthesis of Brain Penetrant Glycopeptide Analogues of PACAP With Neuroprotective Potential for Traumatic Brain Injury and Parkinsonism” (Frontiers in drug discovery, 2022)
